Measurements: patent US7030145B2, “Pyridinyl derivatives for the treatment of depression” (Bristol-Myers Squibb Company, priority 2003, dated 2006)

Legend:
[1] = target: T1, cloned human CRF-R1 receptors (Homo sapiens, UniProt P34998); assay: CRF-R1 receptor binding assay (inhibition of 125I-ovine-CRF binding to cell membranes); set-up: key to activity (Ki class in the CRF assays): a: Ki≦100 nM; b: 100 nM<Ki≦500 nM; c: 500 nM<Ki≦5,000 nM; activity reported in percent inhibition at 10 μM; conditions: membranes of 293EBNA cells transfected with hCRFR1, class d = reported as percent inhibition at 10 μM, figures not given; for Ki: read-out: activity (Ki class in the CRF assays)
T1 construct: the coding region was amplifies by PCR from start to stop codons; expressed in transfected cells; membranes
T1 sequence (P34998 24-415): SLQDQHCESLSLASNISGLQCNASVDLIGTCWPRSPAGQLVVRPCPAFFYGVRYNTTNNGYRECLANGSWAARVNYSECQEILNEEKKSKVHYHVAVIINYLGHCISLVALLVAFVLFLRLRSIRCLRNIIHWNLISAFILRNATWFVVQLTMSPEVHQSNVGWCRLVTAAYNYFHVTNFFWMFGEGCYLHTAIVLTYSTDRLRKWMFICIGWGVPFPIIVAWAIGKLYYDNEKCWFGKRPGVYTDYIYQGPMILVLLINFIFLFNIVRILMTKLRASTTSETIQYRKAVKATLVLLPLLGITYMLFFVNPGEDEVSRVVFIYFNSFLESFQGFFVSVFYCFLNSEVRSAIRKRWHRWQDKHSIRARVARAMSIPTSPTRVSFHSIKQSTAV
Text: The following is a description of the isolation of cell membranes containing cloned human CRF-R1 receptors for use in a standard binding assay as well as a description of the assay itself.
Messenger RNA was isolated from human hippocampus. […]. The mRNA was reverse transcribed using oligo (dt) 12–18 and the coding region was amplifies by PCR from start to stop codons. The resulting PCR fragment was cloned into the EcoRV site of pGEMV, from whence the insert was reclaimed using XhoI+XbaI and cloned into the XhoI+XbaI sites of vector pm3 as (which contains a CMV promoter, the SV′t′ splice and early poly A signals, an Eptein-Barr viral origin of replication, and a hygromycin selectable marker). The resulting expression vector, called phchCRFR was transfected in 293EBNA cells and cells retaining the episome were selected in the presence of […] hygromycin. Cells surviving 4 weeks of selection in hygromycin were pooled, adapted to growth in suspension and used to generate membranes for the binding assay described below. Individual aliquots containing approximately 1×10^8 of the suspended cells were then centrifuged to form a pellet and frozen. For the binding assay a frozen pellet described above containing 293EBNA cells transfected with hCRFR1 receptors is homogenized in 10 mL of ice cold tissue buffer (50 mM HEPES buffer pH 7.0, containing 10 MM MgCl2, 2 mM EGTA, 1 μg/mL apotinin, 1 μg/mL leupeptin and 1 μg/mL pepstatin). The homoginate is centrifuged at 40,000×g for 12 min and the resulting pellet rehomogenized in 10 mL of tissue buffer. After another centrifugation at 40,000×g for 12 min, the pellet is resuspended to a protein concentration of 360 μg/mL to be used in the assay.
Binding assays are performed in 96 well plates; each well having a 300 μL capacity. To each well is added 50 μL of test drug dilutions (final concentration of drugs range from 10^−10–10^−5 M), 100 μL of ^125I-ovine-CRF (^125I-o-CRF) (final concentration 150 pM) and 150 μL of the cell homoginate described above. Plates are then allowed to incubate at room temperature for 2 hours before filtering the incubate over GF/F filters (presoaked with 0.3% polyethyleneimine) using an appropriate cell harvester. Filters are rinsed 2 times with ice cold assay buffer before removing individual filters and assessing them for radioactivity on a gamma counter.
Curves of the inhibition of ^125I-o-CRF binding to cell membranes at various dilutions of test drug are analyzed by the iterative curve fitting program LIGAND [P. J. Munson and D. Rodbard, Anal. Biochem., 107:220 (1980), which provides Ki values for inhibition which are then used to assess biological activity. […]
Messenger RNA was isolated from human hippocampus. The mRNA was isolated from human hippocampus. The mRNA was reverse transcribed using oligo (dt) 12–18 and the coding region was amplifies by PCR from start to stop codons. The resulting PCR fragment was cloned into the EcoRV site of pGEMV, from whence the insert was reclaimed using XhoI+XbaI and cloned into the XhoI+XbaI sites of vector pm3 as (which contains a CMV promoter, the SV′t′ splice and early poly A signals, an Eptein-Barr viral origin of replication, and a hygromycin selectable marker). The resulting expression vector, called phchCRFR was transfected in 293EBNA cells and cells retaining the episome were selected in the presence of […] hygromycin. Cells surviving 4 weeks of selection in hygromycin were pooled, adapted to growth in suspension and used to generate membranes for the binding assay described below. […]
A frozen pellet described above containing 293EBNA cells transfected with hCRFR1 receptors or the rat frontal cortex tissue dissected from frozen rat brains was prepared as the source of membranes expressing CRF1 receptors used in binding assays. […]

melting point	activity (Ki class in the CRF assays) [1]	Ki [1]	Compound
100 to 102 °C	d	–	COc1ccccc1COc1ccc(S(=O)(=O)c2ccc(C)nc2Nc2ccc(S(C)(=O)=O)cc2Cl)cc1 [Example 7, (2-Chloro-4-methanesulfonylphenyl)-{3-[4-(2-methoxybenzyloxy)-benzenesulfonyl]-6-methylpyridin-2-yl}-amine]
149 to 151 °C	d	–	COc1ccccc1COc1ccc(S(=O)(=O)c2ccc(C)nc2Nc2cc(OC)c(OC)cc2Cl)cc1 [Example 6, (2-Chloro-4,5-dimethoxyphenyl)-{3-[4-(2-methoxybenzyloxy)-benzenesulfonyl]-6-methylpyridin-2-yl}-amine]
70 to 72 °C	d	–	COc1ccc(Nc2nc(C)ccc2S(=O)(=O)c2ccc(OCc3ccccc3OC)cc2)c(C)c1 [Example 1, {3-[4-(2-Methoxybenzyloxy)-benzenesulfonyl]-6-methylpyridin-2-yl}-(4-methoxy-2-methylphenyl)-amine]
68 to 70 °C	d	–	COc1ccccc1COc1ccc(S(=O)(=O)c2ccc(C)nc2Nc2cc(F)c(N(C)C)cc2Cl)cc1 [Example 3, 2-Chloro-5-fluoro-N^1-{3-[4-(2-methoxybenzyloxy)-benzenesulfonyl]-6-methylpyridin-2-yl}-N^4,N^4-dimethylbenzene-1,4-diamine]
124 to 126 °C	–	≤ 100 nM	COc1cccc(COc2ccc(S(=O)(=O)c3ccc(C)nc3Nc3c(C)cc(C)cc3C)cc2)c1OC [Example 32, {3-[4-(2,3-Dimethoxybenzyloxy)-benzenesulfonyl]-6-methylpyridin-2-yl}-(2,4,6-trimethylphenyl)-amine]
152 to 153 °C	–	500 to 5000 nM	Cc1cc(C)c(Nc2nc(C)ccc2S(=O)(=O)c2ccc(OCCCO)cc2)c(C)c1 [Example 16, 3-{4-[6-Methyl-2-(2,4,6-trimethylphenylamino)-pyridine-3-sulfonyl]-phenoxy}-propan-1-ol]
165 to 167 °C	–	100 to 500 nM	COc1ccc(S(=O)(=O)c2ccc(C)nc2Nc2c(C)cc(C)cc2C)cc1 [Example 9, [3-(4-Methoxybenzenesulfonyl)-6-methylpyridin-2-yl]-(2,4,6-trimethylphenyl)-amine]
155 to 158 °C	–	≤ 100 nM	Cc1cc(C)c(Nc2nc(C)ccc2S(=O)(=O)c2ccc(OCc3cccc(C#N)c3)cc2)c(C)c1 [Example 24, 3-{4-[6-Methyl-2-(2,4,6-trimethylphenylamino)-pyridine-3-sulfonyl]-phenoxymethyl}-benzonitrile]
157 to 159 °C	d	–	CCOc1ccc(S(=O)(=O)c2ccc(C)nc2Nc2c(C)cc(C)cc2C)cc1 [Example 12, [3-(4-Ethoxybenzenesulfonyl)-6-methylpyridin-2-yl]-(2,4,6-trimethylphenyl)-amine]
148 to 150 °C	–	≤ 100 nM	COc1ccccc1COc1ccc(S(=O)(=O)c2ccc(C)nc2Nc2c(C)cc(C)cc2C)cc1 [Example 27, {3-[4-(2-Methoxybenzyloxy)-benzenesulfonyl]-6-methylpyridin-2-yl}-(2,4,6-trimethylphenyl)-amine]
62 to 64 °C	d	–	COc1cc(Cl)c(Nc2nc(C)ccc2S(=O)(=O)c2ccc(OCc3ccccc3OC)cc2)cc1F [Example 2, (2-Chloro-5-fluoro-4-methoxyphenyl)-{3-[4-(2-methoxybenzyloxy)-benzenesulfonyl]-6-methylpyridin-2-yl}-amine]
160 to 162 °C	–	500 to 5000 nM	Cc1cc(C)c(Nc2nc(C)ccc2S(=O)(=O)c2ccc(OCCCC#N)cc2)c(C)c1 [Example 14, 4-{4-[6-Methyl-2-(2,4,6-trimethylphenylamino)-pyridine-3-sulfonyl]-phenoxy}-butyronitrile]
148 to 150 °C	–	≤ 100 nM	COC(=O)c1cccc(COc2ccc(S(=O)(=O)c3ccc(C)nc3Nc3c(C)cc(C)cc3C)cc2)c1 [Example 25, 3-{4-[6-Methyl-2-(2,4,6-trimethylphenylamino)-pyridine-3-sulfonyl]-phenoxymethyl}-benzoic acid methyl ester]
111 to 113 °C	–	100 to 500 nM	CCC(Oc1ccc(S(=O)(=O)c2ccc(C)nc2Nc2c(C)cc(C)cc2C)cc1)C(=O)OC (stereo not drawn) [Example 18, 2-{4-[6-Methyl-2-(2,4,6-trimethylphenylamino)-pyridine-3-sulfonyl]-phenoxy}-butyric acid methyl ester]
120 to 121 °C	–	100 to 500 nM	COc1cc(COc2cccc(S(=O)(=O)c3ccc(C)nc3Nc3c(C)cc(C)cc3C)c2)cc(OC)c1 [Example 63, {3-[3-(3,5-Dimethoxybenzyloxy)-benzenesulfonyl]-6-methylpyridin-2-yl}-(2,4,6-trimethylphenyl)-amine]
124 to 126 °C	–	≤ 100 nM	COc1cccc(COc2ccc(S(=O)(=O)c3ccc(C)nc3Nc3c(C)cc(C)cc3C)cc2)c1 [Example 26, {3-[4-(3-Methoxybenzyloxy)-benzenesulfonyl]-6-methylpyridin-2-yl}-(2,4,6-trimethylphenyl)-amine]
178 to 180 °C	d	–	COc1ccccc1COc1ccc(S(=O)(=O)c2ccc(C)nc2Nc2ccc(Cl)cc2C#N)cc1 [Example 8, 5-Chloro-2-{3-[4-(2-methoxybenzyloxy)-benzenesulfonyl]-6-methylpyridin-2-ylamino}-benzonitrile]
124 to 125 °C	d	–	COc1ccccc1COc1ccc(S(=O)(=O)c2ccc(C)nc2Nc2ccc(OC(F)F)cc2Cl)cc1 [Example 5, (2-Chloro-4-difluoromethoxyphenyl)-{3-[4-(2-methoxybenzyloxy)-benzenesulfonyl]-6-methylpyridin-2-yl}-amine]
107 to 109 °C	–	≤ 100 nM	COc1cc(COc2ccc(S(=O)(=O)c3ccc(C)nc3Nc3c(C)cc(C)cc3C)cc2)cc(OC)c1 [Example 30, {3-[4-(3,5-Dimethoxybenzyloxy)-benzenesulfonyl]-6-methyl-pyridin-2-yl}-(2,4,6-trimethylphenyl)-amine]
226 to 228 °C	–	500 to 5000 nM	Cc1cc(C)c(Nc2nc(C)ccc2S(=O)(=O)c2ccc(O)cc2)c(C)c1 [Example 10, 4-[6-Methyl-2-(2,4,6-trimethylphenylamino)-pyridine-3-sulfonyl]-phenol]
158 to 160 °C	–	≤ 100 nM	Cc1cc(C)c(Nc2nc(C)ccc2S(=O)(=O)c2ccc(OCc3ccccc3)cc2)c(C)c1 [Example 11, [3-(4-Benzyloxybenzenesulfonyl)-6-methylpyridin-2-yl]-(2,4,6-trimethylphenyl)-amine]
